In series [1] the target is T1, glutamate dehydrogenase (Rattus norvegicus, UniProt P10860).
T1 construct: Commercial and rat brain glutamate dehydrogenases; from tissue; host or cells: rat brain
The series can be described thus: Rat brain glutamate dehydrogenase with RAP. Format: biochemical. The following applies: 20 μM RAP. Here is the method:
(§1) Each of the enzymes was assayed by procedures in which change of absorbance at 340 nm due to NADH was followed essentially as described by Bergmeyer (1974, Methods of Enzymatic Analysis, 2nd Eng. Ed., Verlag Chemie Weinheim Academic Press, N.Y.) with the following exceptions. Phosphofructokinase was assayed according to the method of Lai et al (1984, J. Neurochem., 42:438-446). NAD^+ -linked isocitrate dehydrogenase was assayed as described by Lai and Clark (1976, Biochem. J., 154:423-432). Pyruvate and α-ketoglutarate dehydrogenase complexes were respectively assayed according to the methods of Lai and Sheu (1985, J. Neurochem., 45:1861-1868) and Lai and Cooper (1986) (J. Neurochem, 47:1376-1386).

In series [2] the test system is lactate production from D-glucose in rat brain postnuclear supernatant fraction. Briefly: Lactate production from D-glucose in rat brain postnuclear supernatants. Format: biochemical. The procedure:
FIG. 2 is a graphic presentation of inhibition of lactate production from D-glucose by rat brain postnuclear supernatant fraction and by synaptosoms incubated with RAP. Lactate production was determined for a 20-min incubation at 37° C. Values (expressed as % of the control rate) are mean±SD of 3-6 determinations. The control value was 8.1±0.9 nmol of lactate produced/min/mg protein, *P<0.05, **P<0.03 and ***P<0.005vs. control values.
Postnuclear supernatant fraction (containing the glycolytic enzymes) was prepared from rat brain according to the method of Lai et al (1984, supra). Rat brain synaptosomes were prepared according to the method of Lai et al (1980, Biochem. Pharmacol., 29:141-146). Lactate generated by these preparations in the presence of D-glucose was measured with lactate dehydrogenase as described by Lai et al (1984, supra), except that the concentrations of sodium phosphate buffer and nicotinamide used in the medium were respectively 5 and 20 mM. (In some cases where there was a carry over of appreciable RAP to the assay mix, ten times the recommended amount of lactate dehydrogenase was used and the effectiveness of the enzyme in converting lactate to pyruvate was checked by addition of lactate standards to the cuvette after the initial reaction was over).

Series [3] concerns phosphofructokinase. The series can be described thus: Rat brain phosphofructokinase with RAP. Format: biochemical. The following applies: 20 μM RAP. The procedure: as §1
Series [4] concerns the target T2, α-ketoglutarate dehydrogenase (Rattus norvegicus, UniProt Q5XI78+Q6P6R2).
T2 construct: following enzymes in rat brain subcellular fractions: α-ketoglutarate; from tissue; host or cells: rat brain subcellular fractions
The series can be described thus: Rat brain α-ketoglutarate dehydrogenase with RAP. Format: biochemical. The following applies: 20 μM RAP. Here is the method: as §1

For series [5], the target named is rat brain lactate dehydrogenase. The series can be described thus: Inhibition of rat brain lactate dehydrogenase (rat brain homogenate). Format: biochemical. The following applies: in the presence of either 0.2 or 2 mM pyruvate and 0.1 mM NADH.
Series [6] concerns the target T3, mitochondrial pig heart malate dehydrogenase (Sus scrofa, UniProt P00346).
T3 construct: purchased Boehringer Mannheim Corp. (Indianapolis); host or cells: pig heart
Briefly: Commercial mitochondrial malate dehydrogenase with RAP. The following applies: 20 μM RAP. Format: biochemical. An excerpt: (§2) Enzymes and enzyme assays. Rabbit muscle glyceraldehyde-3-phosphate dehydrogenase (80 U/mg: ammonium sulfate suspension), rabbit muscle glycerol-3-phosphate dehydrogenase (40 U/mg; ammonium sulfate suspension),beef liver glutamate dehydrogenase (120 U/mg: in 50% glycerol), mitochondrial pig heart malate dehydrogenase (1100 U/mg; in 50% glycerol) and yeast hexokinase (140 U/mg; ammonium sulfate suspension) were purchased from Boehringer Mannheim Corp. (Indianapolis). Beef heart lactate dehydrogenase (280 U/mg) was purchased from Worthington Biochemical Corporation (Freehold, N.J.). Porcine heart L-alanine aminotransferase (130 U/mg), rabbit muscle phosphofructokinase (140 U/mg; ammonium sulfate suspension), bovine heart α-ketoglutarate (8 U/mg) and pyruvate (5 U/mg) dehydrogenase complexes, sodium pyruvate, L-methionine-SR-sulfoximine, DL-vinylglycine, NAD^+, NADH and NAD^+ analogues (3-acetylpyridine, thionicotinamide, and 3-pyridinealdehyde adenine dinucleotides) were purchased from Sigma Chemical Company (St. Louis, Mo.).
(§3) Each of the enzymes was assayed by procedures in which change of absorbance at 340 nm due to NADH was followed essentially as described by Bergmeyer (1974, Methods of Enzymatic Analysis, 2nd Eng. Ed., Verlag Chemie Weinheim Academic Press, N.Y.) with the following exceptions. […]

For series [7], the target named is T4, beef liver glutamate dehydrogenase (Bos taurus, UniProt P00366).
T4 construct: purchased Boehringer Mannheim Corp. (Indianapolis); host or cells: beef liver
The series can be described thus: Commercial glutamate dehydrogenase with RAP. Format: biochemical. The following applies: 20 μM RAP.
Source text: as §2, §3

Series [8] in a line: Stability of pyruvate adducts in solution and on storage. Format: physicochemical. The following applies: neutral ph solution; neutral pH values; read-out: t1/2 of reversion to free pyruvate. The procedure:
The procedure used was a modification of that of Everse et al (1971, supra) for the synthesis of the NAD-pyruvate adduct Sodium pyruvate (15 mg) and NAD^+ (or NAD^+ analogue) (100 mg) were dissolved in deaerated water. The pH was brought to 11.0 with concentrated NaOH. After standing at room temperature for one hour, the solution was applied to the top of a column of Whatman DE-52 (2×3 cm), washed with deaerated distilled water. The column was eluted with 30 ml of 25 mM ammonium bicarbonate at 4° C. Unreacted pyruvate, NAD^+ and NAD^+ analogues were eluted in this fraction. The highly-colored (yellow-orange) adducts were eluted with 5-6 ml of 25 mM ammonium bicarbonate containing 4% NaCl. The fraction was split into approximately 1 ml portions, flushed with nitrogen, and stored at -70° C. […] Nevertheless, under the slightly alkaline conditions of storage and low temperature, these adducts remained stable for at least 3 months as judged by their continued potency toward inhibition of lactate dehydrogenase and maintenance of absorbance at 340 nm. […] The presence of a reactive carbonyl function was monitored as follows: 0.2-0.3 μ mole of the adduct was added to 50 μl of 0.1% 2,4-dinitrophenylhdrazine in 2 M HCl. […] The absorbance at 430 nm was compared to equivalent amounts of pyruvate and NAD^+ analogue taken through the same procedure. […]

Entries after “also recorded” stand apart in the source; their conditions may differ.

T2 sequence (Q5XI78 41-1023): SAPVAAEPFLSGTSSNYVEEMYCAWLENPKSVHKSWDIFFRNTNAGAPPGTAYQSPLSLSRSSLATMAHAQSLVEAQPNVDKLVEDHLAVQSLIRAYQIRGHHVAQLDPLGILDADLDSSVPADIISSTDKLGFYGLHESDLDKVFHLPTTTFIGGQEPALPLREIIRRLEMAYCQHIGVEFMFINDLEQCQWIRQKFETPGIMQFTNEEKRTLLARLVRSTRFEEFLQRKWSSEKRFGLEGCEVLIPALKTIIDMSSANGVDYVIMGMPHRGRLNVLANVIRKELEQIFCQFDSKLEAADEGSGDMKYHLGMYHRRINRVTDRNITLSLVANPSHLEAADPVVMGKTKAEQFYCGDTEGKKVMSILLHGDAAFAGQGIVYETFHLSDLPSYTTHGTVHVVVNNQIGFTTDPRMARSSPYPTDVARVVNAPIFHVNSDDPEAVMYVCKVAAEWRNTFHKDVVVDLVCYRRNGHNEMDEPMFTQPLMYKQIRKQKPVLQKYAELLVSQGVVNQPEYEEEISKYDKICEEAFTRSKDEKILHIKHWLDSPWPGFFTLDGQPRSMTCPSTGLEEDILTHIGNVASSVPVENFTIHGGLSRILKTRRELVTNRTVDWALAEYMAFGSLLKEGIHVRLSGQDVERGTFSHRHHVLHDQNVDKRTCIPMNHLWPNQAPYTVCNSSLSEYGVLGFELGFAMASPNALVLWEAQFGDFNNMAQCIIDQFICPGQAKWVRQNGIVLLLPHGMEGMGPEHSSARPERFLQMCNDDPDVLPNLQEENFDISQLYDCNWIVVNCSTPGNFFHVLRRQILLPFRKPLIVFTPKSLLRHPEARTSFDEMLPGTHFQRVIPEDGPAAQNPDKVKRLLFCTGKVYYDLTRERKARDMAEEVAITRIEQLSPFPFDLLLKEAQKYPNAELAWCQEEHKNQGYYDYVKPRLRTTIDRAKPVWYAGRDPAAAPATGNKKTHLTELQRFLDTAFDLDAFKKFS
T2 sequence (Q01205 69-454 partner): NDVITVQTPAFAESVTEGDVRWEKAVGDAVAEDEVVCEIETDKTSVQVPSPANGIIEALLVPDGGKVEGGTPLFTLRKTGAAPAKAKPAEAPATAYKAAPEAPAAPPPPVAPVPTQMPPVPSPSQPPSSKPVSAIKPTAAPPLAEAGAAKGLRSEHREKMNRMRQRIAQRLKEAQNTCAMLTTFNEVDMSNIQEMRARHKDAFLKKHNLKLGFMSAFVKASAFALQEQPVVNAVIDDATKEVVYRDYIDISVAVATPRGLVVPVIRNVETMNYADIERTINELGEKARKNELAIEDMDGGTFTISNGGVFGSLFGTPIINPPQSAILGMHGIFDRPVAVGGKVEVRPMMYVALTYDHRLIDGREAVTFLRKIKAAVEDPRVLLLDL
T2 sequence (Q6P6R2 36-509): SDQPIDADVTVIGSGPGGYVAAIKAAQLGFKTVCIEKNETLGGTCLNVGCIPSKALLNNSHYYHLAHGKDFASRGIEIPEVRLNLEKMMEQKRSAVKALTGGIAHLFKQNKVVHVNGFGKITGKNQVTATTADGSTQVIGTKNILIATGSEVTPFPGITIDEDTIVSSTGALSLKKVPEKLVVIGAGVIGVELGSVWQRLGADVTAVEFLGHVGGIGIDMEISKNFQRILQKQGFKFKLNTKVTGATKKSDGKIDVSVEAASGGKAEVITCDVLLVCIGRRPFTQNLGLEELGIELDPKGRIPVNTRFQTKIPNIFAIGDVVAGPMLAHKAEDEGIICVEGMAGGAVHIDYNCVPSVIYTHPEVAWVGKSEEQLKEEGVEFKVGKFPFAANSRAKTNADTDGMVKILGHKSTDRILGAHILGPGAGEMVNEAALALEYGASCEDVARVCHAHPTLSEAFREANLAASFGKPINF
T1 sequence (P10860 54-558): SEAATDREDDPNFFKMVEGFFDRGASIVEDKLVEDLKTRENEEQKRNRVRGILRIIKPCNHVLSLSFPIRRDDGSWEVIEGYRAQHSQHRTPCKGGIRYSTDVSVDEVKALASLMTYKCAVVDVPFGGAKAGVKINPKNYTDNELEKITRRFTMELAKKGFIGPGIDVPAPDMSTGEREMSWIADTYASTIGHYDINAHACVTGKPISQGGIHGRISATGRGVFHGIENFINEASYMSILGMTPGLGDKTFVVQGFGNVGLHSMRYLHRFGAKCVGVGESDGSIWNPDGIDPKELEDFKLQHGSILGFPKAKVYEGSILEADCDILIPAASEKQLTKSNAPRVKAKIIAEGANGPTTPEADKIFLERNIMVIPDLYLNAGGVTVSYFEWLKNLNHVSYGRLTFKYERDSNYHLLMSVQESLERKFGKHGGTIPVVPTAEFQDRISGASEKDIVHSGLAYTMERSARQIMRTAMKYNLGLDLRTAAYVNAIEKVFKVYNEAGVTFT
T4 sequence (P00366 58-558): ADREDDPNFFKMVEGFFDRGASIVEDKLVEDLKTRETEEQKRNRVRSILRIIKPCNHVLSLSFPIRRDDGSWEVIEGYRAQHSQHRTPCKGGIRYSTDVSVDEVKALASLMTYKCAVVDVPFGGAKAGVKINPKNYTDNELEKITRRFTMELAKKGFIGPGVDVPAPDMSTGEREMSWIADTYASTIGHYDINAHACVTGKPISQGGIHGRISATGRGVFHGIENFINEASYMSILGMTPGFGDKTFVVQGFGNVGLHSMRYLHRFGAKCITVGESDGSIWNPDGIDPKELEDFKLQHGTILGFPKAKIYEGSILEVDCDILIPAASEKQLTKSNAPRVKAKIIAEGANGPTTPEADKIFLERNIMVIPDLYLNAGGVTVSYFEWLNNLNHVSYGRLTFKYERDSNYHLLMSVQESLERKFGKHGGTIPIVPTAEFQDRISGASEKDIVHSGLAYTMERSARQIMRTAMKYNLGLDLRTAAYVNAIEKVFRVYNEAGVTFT
T3 sequence (P00346 25-338): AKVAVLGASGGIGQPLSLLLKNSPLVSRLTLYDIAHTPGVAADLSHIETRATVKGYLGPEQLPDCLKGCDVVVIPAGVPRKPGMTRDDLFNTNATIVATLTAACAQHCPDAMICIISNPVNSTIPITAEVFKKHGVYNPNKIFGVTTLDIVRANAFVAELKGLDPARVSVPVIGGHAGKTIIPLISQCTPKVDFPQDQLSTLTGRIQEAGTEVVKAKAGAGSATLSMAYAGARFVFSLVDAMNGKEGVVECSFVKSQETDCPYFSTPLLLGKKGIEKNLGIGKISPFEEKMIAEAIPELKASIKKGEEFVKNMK

As usually defined, the inhibition is the change of the read-out against control, counted positive when it falls. A low value points to a response near the control. As to `Nc1ncnc2c1ncn2[C@@H]1O[C@H](COP(=O)(O)OP(=O)(O)OC[C@H]2O[C@@H](N3C=CC(CC(=O)C(=O)O)C(C=O)=C3)[C@H](O)[C@@H]2O)[C@@H](O)[C@H]1O` (some centres unmarked) [RAP, 3(-4-(reduced 3-pyridinealdehyde-adeninedinucleotide))-pyruvate], the “effect on rat brain glutamate dehydrogenase” value in series [1] is given as “little or no effect”. In addition, the inhibition at 20 µM in series [1], in series [6] and in series [7] was not above 20% each time. In series [2], the “inhibition of lactate production from glucose in rat brain extracts” value is on record as “strongly inhibited”. In series [2] (rat brain postnuclear supernatants, D-glucose), the “concentrations at which lactate production is inhibited in a concentration-dependent manner” value was “higher than 200 nM”. In addition, the IC50 is 1000 to 9000 nM in series [2] (rat brain postnuclear supernatants, D-glucose, 20-min incubation at 37° C., true concentration lower since RAP dissociates, read-out: formal "concentration" required to inhibit lactate production by 50%) and approximately 100 nM in series [5]. Moreover, the “effect on rat brain phosphofructokinase” value in series [3] is on record as “similarly unaffected”. The “effect on rat brain α-ketoglutarate dehydrogenase” value in series [4] is reported as “little or no effect; also recorded: did not inhibit”. Moreover, in series [8], the half-life was 1.5 h.

For the origin of these results see patent US4950602A, “Inhibition of lactate production by pyruvate adducts” (Cornell Research Foundation, Inc., priority 1987, dated 1990).
